Experimental data reported in PMC2784364, “VX-166: a novel potent small molecule caspase inhibitor as a potential therapy for sepsis” (Critical Care, 2009).
Entries after “also recorded” stand apart in the source; their conditions may differ. Read-outs that look alike come from different tables or passages of the source.

Key:
caspase-2 = target: T1, caspase-2 (Homo sapiens, UniProt P42575); assay: Caspase inhibition assay, second-order inactivation rate; assay type: biochemical
T1 construct: purchased Biomol (Exeter, UK)
Protocol: (§1) Active recombinant caspase-1, -3, -4, -7 and -8 were prepared as described previously. Caspase-2 was purchased from Biomol (Exeter, UK), caspase-6 from BD Biosciences (Oxford, UK), caspase-9 from Europa Bioproducts Ltd. (Cambridge, UK) and caspase-10 from Chemicon International Inc. (Harrow, UK). Cathepsin B and granzyme B were purchased from Merck Biosciences Ltd. (Nottingham, UK). Fluorogenic protease substrates were purchased from Bachem Ltd. (St. Helens, UK). All reactions were carried out at 37°C using a Molecular Devices (Wokingham, UK) Gemini plate-reader at 460 nm (excitation wavelength of 390 nm). Caspase inhibition assays were conducted, with minor modifications, as described by Margolin and colleagues. Irreversible kinetics were analysed by calculations of second-order inactivation rate constants (k) using GraphPad (La Jolla, CA, USA) Prism 4.0 software. A larger number for an inactivation rate constant indicates a greater degree of inactivation. To determine the inhibitory effect on cathepsin B, 4.25 nM of the enzyme were added to 250 μM z-RR-AMC in 10 mM 2-morpholino-ethanesulfonic acid pH 6.0, 1 mM DTT, 1 mM EDTA and 0.03% Brij35 in the presence or absence of VX-166 and the reaction monitored continuously over 15 minutes. Granzyme B was assayed, with minor modifications, as described by Thornberry and colleagues. Additional counterscreening against a panel of 83 additional enzymes, ion channels and receptors was carried out at MDS Pharma Services (Bothell, WA, USA).

caspase-4 = target: T2, caspase-4 (Homo sapiens, UniProt P49662); assay: as above; assay type: biochemical; conditions: recombinant caspase-4, 37°C, n = 4; read-out: Second order inactivation rate constant K
T2 construct: Active recombinant caspase-1, -3, -4, -7 and -8 were prepared as described previously; made in house
Protocol: as §1

caspase-6 = target: T3, caspase-6 (Homo sapiens, UniProt P55212); assay: as above; assay type: biochemical; conditions: recombinant caspase-6, 37°C, n = 4; read-out: Second order inactivation rate constant K
T3 construct: purchased BD Biosciences (Oxford, UK)
Protocol: as §1

caspase-8 = target: T4, caspase-8 (Homo sapiens, UniProt Q14790); assay: as above; assay type: biochemical; conditions: recombinant caspase-8, 37°C, n = 4; read-out: Second order inactivation rate constant K
T4 construct: Active recombinant caspase-1, -3, -4, -7 and -8 were prepared as described previously; made in house
Protocol: as §1

caspase-7 = target: T5, caspase-7 (Homo sapiens, UniProt P55210); assay: as above; assay type: biochemical; conditions: recombinant caspase-7, 37°C, n = 4; read-out: Second order inactivation rate constant K
T5 construct: Active recombinant caspase-1, -3, -4, -7 and -8 were prepared as described previously; made in house
Protocol: as §1

caspase-1 = target: T6, caspase-1 (Homo sapiens, UniProt P29466); assay: as above; assay type: biochemical; conditions: caspase-1, text; read-out: second order inactivation rate constant (k)
T6 construct: Active recombinant caspase-1, -3, -4, -7 and -8 were prepared as described previously; made in house
Protocol: as §1

caspase-10 = target: T7, caspase-10 (Homo sapiens, UniProt Q92851); assay: as above; assay type: biochemical; conditions: recombinant caspase-10, 37°C, n = 4; read-out: Second order inactivation rate constant K
T7 construct: purchased Chemicon International Inc. (Harrow, UK)
Protocol: as §1

thymocytes = assay: CLP rat, thymocyte apoptosis by flow cytometry; assay type: in vivo; conditions: 20 hours, 25 mg/ml pump, n = 10
Protocol: CLP studies were performed in accordance with the National Institutes of Health guidelines for the use of experimental animals and were approved by the Institutional Animal Care and Use Committee of the Feinstein Institute for Medical Research. Adult male Sprague-Dawley rats (weighing 275 to 325 g, Charles River Laboratories, Wilmington, MA, USA) were fasted overnight then anaesthetised with isoflurane. The caecum was exposed via a 2 cm midline incision. It was ligated just distal to the ileocaecal valve, then punctured twice with an 18-gauge needle and gently squeezed to release a small amount of faecal material to ensure patency of the perforation sites before the abdominal incision was closed. Sham-operated rats underwent the same procedure with the exception that the caecum was neither ligated nor punctured. Animals received subcutaneous fluids (30 ml/kg saline) immediately after the procedure. No antibiotics were administered. In the 7 and 10 day survival studies animals were re-anaesthetised 20 hours after CLP, the perforated caecum was removed and the abdominal cavity washed twice with 40 ml of warm, sterilised saline. The abdominal cavity was closed, anaesthetics withdrawn and rats returned to their cages where they were allowed free access to food and water. In the 20 hour endpoint study the caecum was not removed. […]
Rat PBMC were isolated from heparinised blood by Ficoll Paque (GE Healthcare Bio-Sciences Corp., Piscataway, NJ, USA) density gradient centrifugation and washed three times with PBS (Invitrogen, Carlsbad, CA, USA). […] Cells were then washed twice in PBS, counted and reconstituted in Ca^2+-rich Annexin-V binding buffer (BD Biosciences, San Jose, CA, USA) at a concentration of 1 × 10^7 cells/ml. […] Cells were then analysed by flow cytometry with the FACS-Calibur (BD Biosciences, San Jose, CA, USA) and percentages of viable (Annexin-V^-/PI^-), early apoptotic (Annexin-V^+/PI^-), late apoptotic (Annexin-V^+/PI^+) and necrotic (Annexin-V^-/PI^+) cells were determined.

T1 sequence (P42575 whole entry): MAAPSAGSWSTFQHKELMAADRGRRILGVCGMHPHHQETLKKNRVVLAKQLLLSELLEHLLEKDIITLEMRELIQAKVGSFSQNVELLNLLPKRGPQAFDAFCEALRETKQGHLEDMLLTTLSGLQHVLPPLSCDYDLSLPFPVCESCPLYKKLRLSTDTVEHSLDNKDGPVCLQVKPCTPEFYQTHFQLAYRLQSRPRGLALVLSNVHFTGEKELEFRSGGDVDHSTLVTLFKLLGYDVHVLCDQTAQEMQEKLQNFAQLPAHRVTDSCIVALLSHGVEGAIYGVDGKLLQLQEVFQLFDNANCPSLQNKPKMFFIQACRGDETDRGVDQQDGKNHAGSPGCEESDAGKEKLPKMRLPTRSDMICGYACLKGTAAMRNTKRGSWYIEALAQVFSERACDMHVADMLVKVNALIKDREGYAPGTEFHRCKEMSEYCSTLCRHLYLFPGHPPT
T7 sequence (Q92851 220-521): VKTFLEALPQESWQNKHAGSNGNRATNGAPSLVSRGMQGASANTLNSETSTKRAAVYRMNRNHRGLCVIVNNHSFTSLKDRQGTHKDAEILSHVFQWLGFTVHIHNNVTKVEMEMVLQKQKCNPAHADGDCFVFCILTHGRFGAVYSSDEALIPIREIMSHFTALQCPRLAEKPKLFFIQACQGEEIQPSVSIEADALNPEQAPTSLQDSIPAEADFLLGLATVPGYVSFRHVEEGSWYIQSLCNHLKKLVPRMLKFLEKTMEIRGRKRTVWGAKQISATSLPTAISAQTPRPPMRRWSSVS
T6 sequence (P29466 120-297 limits assumed): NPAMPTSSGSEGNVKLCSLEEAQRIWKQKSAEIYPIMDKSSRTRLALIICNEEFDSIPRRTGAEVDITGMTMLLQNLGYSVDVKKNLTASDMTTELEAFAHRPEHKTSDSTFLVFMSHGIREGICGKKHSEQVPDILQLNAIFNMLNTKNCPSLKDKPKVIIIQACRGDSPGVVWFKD
T6 sequence (P29466 317-404 limits assumed): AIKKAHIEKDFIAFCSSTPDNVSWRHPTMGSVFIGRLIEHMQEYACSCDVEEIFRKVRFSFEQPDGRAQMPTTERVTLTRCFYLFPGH
T5 sequence (P55210 24-198 limits assumed): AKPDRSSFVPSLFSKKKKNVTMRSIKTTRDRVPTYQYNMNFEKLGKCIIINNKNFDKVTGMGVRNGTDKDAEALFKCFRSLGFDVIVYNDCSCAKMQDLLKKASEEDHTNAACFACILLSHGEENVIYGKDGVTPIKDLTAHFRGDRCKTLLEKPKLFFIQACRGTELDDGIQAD
T5 sequence (P55210 207-303 limits assumed): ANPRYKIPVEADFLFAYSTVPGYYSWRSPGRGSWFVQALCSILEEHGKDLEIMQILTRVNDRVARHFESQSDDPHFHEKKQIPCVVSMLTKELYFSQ
T4 sequence (Q14790 217-374 limits assumed): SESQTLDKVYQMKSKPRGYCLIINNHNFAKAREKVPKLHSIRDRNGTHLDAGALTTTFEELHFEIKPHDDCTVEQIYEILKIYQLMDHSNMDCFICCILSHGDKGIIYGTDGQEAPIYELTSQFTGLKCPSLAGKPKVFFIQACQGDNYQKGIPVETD
T4 sequence (Q14790 385-479 limits assumed): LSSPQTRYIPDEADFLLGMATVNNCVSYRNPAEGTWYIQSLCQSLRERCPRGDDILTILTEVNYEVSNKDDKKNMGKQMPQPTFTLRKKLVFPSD
T3 sequence (P55212 24-293): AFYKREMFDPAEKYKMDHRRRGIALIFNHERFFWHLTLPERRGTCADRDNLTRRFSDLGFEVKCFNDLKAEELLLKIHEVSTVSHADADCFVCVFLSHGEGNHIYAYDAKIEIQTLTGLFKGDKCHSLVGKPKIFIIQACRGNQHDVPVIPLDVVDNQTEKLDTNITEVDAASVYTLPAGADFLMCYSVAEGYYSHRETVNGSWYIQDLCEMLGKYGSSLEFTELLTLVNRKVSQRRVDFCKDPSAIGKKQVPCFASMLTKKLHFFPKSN
T2 sequence (P49662 81-270 limits assumed): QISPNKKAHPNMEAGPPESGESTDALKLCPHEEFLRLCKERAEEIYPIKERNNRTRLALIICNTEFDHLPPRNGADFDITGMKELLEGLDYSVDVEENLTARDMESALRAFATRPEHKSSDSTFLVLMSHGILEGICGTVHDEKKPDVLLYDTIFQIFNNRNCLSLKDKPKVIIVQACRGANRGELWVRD
T2 sequence (P49662 290-377 limits assumed): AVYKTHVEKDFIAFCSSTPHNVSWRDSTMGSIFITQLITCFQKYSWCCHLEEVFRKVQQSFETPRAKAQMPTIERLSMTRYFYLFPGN

`CCC(C(=O)NC(CC(=O)O)C(=O)COc1c(F)c(F)cc(F)c1F)n1cccc(NC(=O)OC)c1=O` (centres unmarked) [VX-166] gave a kinact/KI (caspase-2; caspase-2, text, read-out: second order inactivation rate constant (k)) of 6000 M⁻¹ s⁻¹, a kinact/KI (caspase-2; read-out: Second order inactivation rate constant K) of 6190 ± 510 M⁻¹ s⁻¹ and a kinact/KI (caspase-4) of 480000 ± 32000 M⁻¹ s⁻¹. It also gave a kinact/KI (caspase-6) of 77000 ± 3000 M⁻¹ s⁻¹, a kinact/KI (caspase-8) of 194000 ± 52000 M⁻¹ s⁻¹ and a kinact/KI (caspase-7) of 526000 ± 1500 M⁻¹ s⁻¹. For the same compound, the kinact/KI (caspase-1) was over 1e+06 M⁻¹ s⁻¹, the kinact/KI (caspase-10) was 49000 ± 3800 M⁻¹ s⁻¹ and the “level of necrotic thymocytes between groups” value (thymocytes) was “remained unchanged”. For the same compound, the “percentage of early apoptotic thymocytes vs vehicle CLP group” value (thymocytes) was “significantly inhibited thymic atrophy and lymphocyte apoptosis; also recorded: reduced the percentage of early apoptotic thymocytes” and the “percentage of viable thymocytes vs vehicle CLP group” value (thymocytes) was “significantly increased the percentage of viable cells”.
